Assay results published in patent US20250255994A1, “DIMERIC IMMUNOCONJUGATES FOR USE IN TREATING CANCERS AND METHODS OF USE” (Medicovestor, Inc., priority 2023, published 2025).
“Also recorded” adds a separate entry of the source. Starred links: 1 amine or outer side, 2 acyl side, 3 side chain; linkers in the order of their positions; H or OH if unused. Non-standard residues stand in square brackets, D forms with d. Residues, ends and D or L forms follow the SMILES beside them. *: point of attachment. Exatecan = CC[C@@]1(O)C(=O)OCc2c1cc1n(c2=O)Cc2c-1nc1cc(F)c(C)c3c1c2[C@@H](N*)CC3; Hexanoyl(6-maleimido) = O=C1C=CC(=O)N1CCCCCC(=O)*; NHCH2OCH2CO = O=C(COCN[*:1])[*:2]

Experiments:
[1] = system: ID8 cells; experiment: ID8 cytotoxicity assay, Example 4; format: cell-based, mouse; details: 3 additional days, FIG. 10 axis: percent cytotoxicity
Experimental: […] The cells were then treated with various concentrations of either the SP17-AB2 antibody, the SP17-AB2-DXD immunoconjugate, hIgG4, or deruxtecan alone. The cells were incubated for 3 additional days, and then cytotoxicity was measured.

[2] = system: SK-OV-3 cells; experiment: SK-OV-3 cytotoxicity assay (luminescence), Example 4; details: 5 or 6 additional days; for Max Cytotoxicity: FIG. 9 axis: percent cytotoxicity
Experimental: SK-OV-3 cells were seeded at 1000, 2000, or 3000 cells per well and incubated overnight in advance of a cytotoxicity assay. […] The SK-OV-3 cells were treated with various concentrations of the SP17-AB2 antibody, the SP17-AB2-DXD immunoconjugate, a control human IgG4 antibody (hIgG4), or deruxtecan alone (DXD). The cells were incubated for 5 or 6 additional days, and cytotoxicity was then measured using a luminescence assay and En Vision™ plate reader (PerkinElmer, Massachusetts, United States).

[3] = system: SK-OV-3 cells; experiment: SK-OV-3 cytotoxicity assay (luminescence), Example 9; format: cell-based, human; details: SK-OV-3 cells at 2000 cells/well; five additional days
Experimental: The SK-OV-3 cells are then treated with various concentrations of (1) the SP17-AB2 antibody, (2) the SP17-AB2-DXD immunoconjugate, (3) the SP17-AB2-Ozogamicin immunoconjugate, (4) both the SP17-AB2-DXD immunoconjugate and the SP17-AB2-Ozogamicin, (5) the dSP17-AB2-DXD/Ozogamicin immunoconjugate, (6) hdSP17-AB2, (7) hIgG4, or (8) deruxtecan. […] IC50s and maximum cytotoxicity are then determined.
The IC50 of (4) the combination of SP17-AB2-DXD and SP17-AB2-Ozogamicin is determined based on the concentration of SP17-AB2-DXD and SP17-AB2-Ozogamicin individually and not based on the combined concentration. For example, when SK-OV-3 cells are incubated at a concentration of SP17-AB2-DXD and SP17-AB2-Ozogamicin of 128 nanomolar each, then the IC50 is calculated based on the 128 nanomolar concentration (and not the 256 nanomolar combined concentration) so that 128 nanomolar of (4) SP17-AB2-DXD and SP17-AB2-Ozogamicin contains about the same concentration of deruxtecan, ozogamicin, and antigen-binding sites as 128 nanomolar of (5) the dSP17-AB2-DXD/Ozogamicin immunotherapeutic.

[4] = biological target: T1, recombinant 6His-Sp17 protein (human, UniProt Q15506 1-151); experiment: surface plasmon resonance (Biacore T200), 6His-Sp17 at 6.25-300 nanomolar as analyte
T1 construct: Analyte of the surface plasmon resonance experiment; not shown: 6His tag
T1 sequence (looked up): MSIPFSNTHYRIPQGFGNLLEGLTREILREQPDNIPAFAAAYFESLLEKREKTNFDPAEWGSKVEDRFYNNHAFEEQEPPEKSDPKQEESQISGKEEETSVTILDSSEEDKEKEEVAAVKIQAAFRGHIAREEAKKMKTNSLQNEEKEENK
Excerpt: (§1) The lines correspond, from highest to lowest, to fitted cycles for 300 nanomolar, 100 nanomolar, 50 nanomolar, 25 nanomolar, 12.5 nanomolar, and 6.25 nanomolar concentrations of 6His-Sp17.
(§2) The nucleotide sequences encoding the VH and VL regions of Example 1 were cloned into a […] heavy chain gene and a mouse kappa light chain gene, respectively, and expressed in CHO-S cells to produce a mouse-human chimeric antibody, which was named chAB2. Successful generation of the antibody was confirmed by SDS-PAGE and western blotting using anti-mouse heavy and light chain antibodies and recombinant Sp17 protein (FIGS. 2 & 3). The chAB2 antibody was reactive to mouse surface Sp17 protein expressed on the mouse ovarian cancer cell line ID8 (FIG. 4).

[5] = biological target: T1, recombinant 6His-Sp17 protein; experiment: surface plasmon resonance, 6His-Sp17 at 6.25-300 nanomolar as analyte
Excerpt: as §1, §2

[6] = biological target: T2, recombinant 6His-Sp17 protein (Homo sapiens, UniProt Q15506); experiment: Surface plasmon resonance (Biacore T200) of chAB2 binding to Sp17; details: SPR
T2 construct: 6His
T2 sequence (Q15506 1-151): T1 sequence (looked up)
Excerpt: as §1
as §2, with “3).” for “3). The chAB2 antibody was reactive to mouse surface Sp17 protein expressed on the mouse ovarian cancer cell line ID8 (FIG. 4).”

[7] = system: 33 normal human tissues; experiment: Immunohistochemistry on a normal tissue microarray (specificity); format: binding
Experimental: The specificity of the chAB2 antibody for Sp17 was determined with immunohistochemistry on a normal tissue microarray, which consisted of 33 normal tissues obtained from 2-3 human donors per tissue. The normal tissues included brain, eye, adrenal gland, hypophyseal, thyroid, parathyroid, tonsil, thymus, spleen, heart, lung, larynx, esophagus, stomach, small intestine, colon, liver, pancreas, salivary gland, kidney, bone, skeletal, skin, peripheral nerve, mesothelial, breast, ovary, endometrium, cervix, testis, and prostate.

[8] = biological target: T3, mouse surface Sp17 protein expressed on the mouse ovarian cancer cell line ID8 (Mus musculus, UniProt Q62252); experiment: Flow cytometry of ID8 cells labeled with chAB2 and anti-mouse FITC antibody; format: cell-based; details: relative to anti-mouse FITC antibody alone
T3 construct: mouse surface Sp17 protein expressed on the mouse ovarian cancer cell line ID8; endogenous in cells; host or cells: ID8 mouse ovarian cancer cells
T3 sequence (Q62252 1-149): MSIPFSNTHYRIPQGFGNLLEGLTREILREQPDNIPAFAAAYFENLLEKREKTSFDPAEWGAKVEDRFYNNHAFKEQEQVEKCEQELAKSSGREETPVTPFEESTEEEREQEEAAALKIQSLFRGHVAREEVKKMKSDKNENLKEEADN
Experimental: FIG. 4 consists of three panels. The left panel is a graph that depicts flow cytometry results for ID8 cells incubated with an anti-mouse fluorescein isothiocyanate (FITC) antibody, but without a primary antibody. The middle panel is a graph that depicts flow cytometry results for ID8 cells labeled with the anti-Sp17 antibody chAB2 and the anti-mouse FITC antibody.
as §2, with “3).” for “3). The chAB2 antibody was reactive to mouse surface Sp17 protein expressed on the mouse ovarian cancer cell line ID8 (FIG. 4).”

[9] = SK-OV-3 cells at 1000 cells/well
[10] = SK-OV-3 cells at 2000 cells/well
[11] = SK-OV-3 cells at 3000 cells/well

Molecule: CC[C@@]1(O)C(=O)OCc2c1cc1n(c2=O)Cc2c-1nc1cc(F)c(C)c3c1c2[C@@H](NC(=O)COCNC(=O)CNC(=O)[C@H](Cc1ccccc1)NC(=O)CNC(=O)CNC(=O)CCCCCN1C(=O)C=CC1=O)CC3 [deruxtecan] ({Hexanoyl(6-maleimido)}-GGFG[NHCH2OCH2CO]-Exatecan)
- Max Cytotoxicity ([1]; ID8 cells at 250 cells/well): 94
- Max Cytotoxicity ([1]; ID8 cells at 500 cells/well): 93
- IC50 [2, 9]: 0.75 nM
- Max Cytotoxicity [2, 9]: 98
- IC50 [2, 10]: 1.1 nM
- Max Cytotoxicity [2, 10]: 97
- IC50 [2, 11]: 1.2 nM
- Max Cytotoxicity [2, 11]: 97
- Max Cytotoxicity [3]: 97

B1: mouse-human chimeric anti-Sp17 IgG2a/kappa monoclonal antibody chAB2 (antibody, V domains shown)
VH: QVQLQQSGAEVKKPGSSVKVSCKASGGTFSSYAISWVRQAPGQGLEWMGRIIPILGIANYAQKFQGRVTITADKSTSTAYMELSSLRSEDTAVYYCARPSEEVVAAYGAFDIWGQGTTVTVSS
VL: EIVLTQSPLSLPVRPGEPASISCRASQSLLRSDGFNYLDWYLQKPGQSPQLLVYLGSNRASGVPDRFSGSGSGTDFTLKISRVEAEDVGVYYCMQAVQTPYIFGQGTKLEIK
notes: also called chimeric antibody; anti-Sp17 antibody chAB2
- Kd [4]: 2.07 nM
- koff [5]: 0.00013 s⁻¹
- kon [5]: 62600 M⁻¹ s⁻¹

B2: chAB2: mouse-human chimeric anti-Sp17 antibody: human VH/VL in mouse IgG2a heavy chain and mouse kappa light chain, expressed in CHO-S cells (antibody, V domains shown)
VH: B1 VH
VL: B1 VL
- association rate constant (ka) ([6]; 6.25-300 nanomolar 6His-Sp17): 62,600 per mole per second
- Kd ([6]; read-out: dissociation constant (KD)): ~2 nM
- binding to / cross-reactivity with normal tissues (immunohistochemistry) ([7]; 33 normal tissues, 2-3 human donors per tissue): lack detectable cross-reactivity; also recorded: did not bind to normal tissues
- binding to testis (immunohistochemistry) ([7]; testis tissue): bound to testis
- reactivity to surface Sp17 on ID8 cells (mean fluorescent intensity) [8]: reactive to mouse surface Sp17 protein; also recorded: increased mean fluorescent intensity
